Measured values as given in PubChem BioAssay AID180 (DTP/NCI, 2004).
Where “and” joins values, the source holds several entries; their conditions need not be identical. Equal entries are not always repeated.

System: BDF1 mice, Adenocarcinoma 755 s.c., tumor weight T/C
Assay: NCI In Vivo Anticancer Drug Screen. Data for tumor model Adenocarcinoma 755 (subcutaneous) in B6D2F1 (BDF1) mice
Settings: endpoint: mean tumor weight, higher = larger tumour
Outline: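 In vivo antitumor screen on a transplantable tumor line. Result equals the measure in compound-treated animals divided by the same measure in vehicle controls.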

[1] = dose: 15.0 mg/kg/injection, schedule: Q01DX011 (ip), vehicle: methylcellulose (MC)
[2] = dose: 31.0 mg/kg/injection, schedule: Q01DX011 (ip), vehicle: methylcellulose (MC)
[3] = dose: 62.0 mg/kg/injection, schedule: Q01DX011 (ip), vehicle: methylcellulose (MC)
[4] = dose: 30.0 mg/kg/injection, schedule: Q01DX011 (ip), vehicle: carboxymethylcellulose (CMC)
[5] = dose: 60.0 mg/kg/injection, schedule: Q01DX011 (ip), vehicle: carboxymethylcellulose (CMC)
[6] = dose: 120.0 mg/kg/injection, schedule: Q01DX011 (ip), vehicle: carboxymethylcellulose (CMC)
[7] = dose: 12.5 mg/kg/injection, schedule: Q01DX011 (ip), vehicle: carboxymethylcellulose (CMC)
[8] = dose: 25.0 mg/kg/injection, schedule: Q01DX011 (ip), vehicle: carboxymethylcellulose (CMC)
[9] = dose: 15.0 mg/kg/injection, schedule: Q01DX011 (ip), vehicle: carboxymethylcellulose (CMC)
[10] = dose: 50.0 mg/kg/injection, schedule: Q01DX011 (ip), vehicle: carboxymethylcellulose (CMC)
[11] = dose: 100.0 mg/kg/injection, schedule: Q01DX011 (ip), vehicle: carboxymethylcellulose (CMC)
[12] = dose: 200.0 mg/kg/injection, schedule: Q01DX011 (ip), vehicle: carboxymethylcellulose (CMC)

## Cc1cn(C2CCCCC2)c(=O)n(-c2ccccc2)c1=O
[1]
  T/C: 108 % of control
[2]
  T/C: 91 % of control
[3]
  T/C: 93 % of control
dose: 125.0 mg/kg/injection, schedule: Q01DX011 (ip), vehicle: methylcellulose (MC)
  T/C: 96 % of control
dose: 250.0 mg/kg/injection, schedule: Q01DX011 (ip), vehicle: methylcellulose (MC)
  T/C: 88 % of control

## CC(=O)OCC1OC(n2cnc3c(=O)[nH]cnc32)C(OC(C)=O)C1OC(C)=O (centres undefined)
[4]
  T/C: 55 % of control
[5]
  T/C: 65 % of control
[6]
  T/C: 80 % of control
dose: 240.0 mg/kg/injection, schedule: Q01DX011 (ip), vehicle: carboxymethylcellulose (CMC)
  T/C: 67 % of control
dose: 400.0 mg/kg/injection, schedule: Q01DX011 (ip), vehicle: carboxymethylcellulose (CMC)
  T/C: 110 % of control
dose: 600.0 mg/kg/injection, schedule: Q01DX011 (ip), vehicle: carboxymethylcellulose (CMC)
  T/C: 117 % of control

## CCCCCn1cnc2c(=S)nc(N)[nH]c21
dose: 3.1 mg/kg/injection, schedule: Q01DX011 (ip), vehicle: carboxymethylcellulose (CMC)
  T/C: 112 % of control
dose: 6.2 mg/kg/injection, schedule: Q01DX011 (ip), vehicle: carboxymethylcellulose (CMC)
  T/C: 76 % of control
[7]
  T/C: 28 % of control
[8]
  T/C: 10 % of control
dose: 75.0 mg/kg/injection, schedule: Q01DX011 (ip), vehicle: carboxymethylcellulose (CMC)
  T/C: 2 % of control

## CC(=O)OC1C(CO)OC(n2cnc3c(=S)nc[nH]c32)C1OC(C)=O (centres undefined)
dose: 3.75 mg/kg/injection, schedule: Q01DX011 (ip), vehicle: carboxymethylcellulose (CMC)
  T/C: 38 % of control
dose: 7.5 mg/kg/injection, schedule: Q01DX011 (ip), vehicle: carboxymethylcellulose (CMC)
  T/C: 10 % of control
[9]
  T/C: 5 % of control
[4]
  T/C: 5 % of control and 7 % of control
[5]
  T/C: 7 % of control
[6]
  T/C: 6 % of control

## CCn1cnc2c(SC)nc(N)nc21
dose: 6.25 mg/kg/injection, schedule: Q01DX011 (ip), vehicle: methylcellulose (MC)
  T/C: 74 % of control
dose: 12.5 mg/kg/injection, schedule: Q01DX011 (ip), vehicle: methylcellulose (MC)
  T/C: 30 % of control
dose: 25.0 mg/kg/injection, schedule: Q01DX011 (ip), vehicle: methylcellulose (MC)
  T/C: 31 % of control
dose: 50.0 mg/kg/injection, schedule: Q01DX011 (ip), vehicle: methylcellulose (MC)
  T/C: 7 % of control
dose: 100.0 mg/kg/injection, schedule: Q01DX011 (ip), vehicle: methylcellulose (MC)
  T/C: 1 % of control

## N#Cc1cn(Cc2ccco2)c(=O)[nH]c1=O
[1]
  T/C: 54 % of control
[2]
  T/C: 84 % of control
[3]
  T/C: 80 % of control

## CCOC(=O)n1cnc2ncnc(SC)c21
dose: 5.0 mg/kg/injection, schedule: Q01DX011 (ip), vehicle: carboxymethylcellulose (CMC)
  T/C: 59 % of control
dose: 10.0 mg/kg/injection, schedule: Q01DX011 (ip), vehicle: carboxymethylcellulose (CMC)
  T/C: 80 % of control
[7]
  T/C: 48 % of control
[8]
  T/C: 15 % of control
[10]
  T/C: 7 % of control
[11]
  T/C: 5 % of control
[12]
  T/C: 5 % of control

## O=C(CCBr)N1CCN(C(=O)CCBr)CC1
dose: 5.6 mg/kg/injection, schedule: Q01DX011 (ip), vehicle: methylcellulose (MC)
  T/C: 103 % of control
dose: 11.25 mg/kg/injection, schedule: Q01DX011 (ip), vehicle: methylcellulose (MC)
  T/C: 89 % of control and 94 % of control
[9]
  T/C: 56 % of control
dose: 22.5 mg/kg/injection, schedule: Q01DX011 (ip), vehicle: methylcellulose (MC)
  T/C: 40 % of control and 65 % of control
[4]
  T/C: 37 % of control
dose: 45.0 mg/kg/injection, schedule: Q01DX011 (ip), vehicle: methylcellulose (MC)
  T/C: 51 % of control
[5]
  T/C: 24 % of control
dose: 90.0 mg/kg/injection, schedule: Q01DX011 (ip), vehicle: methylcellulose (MC)
  T/C: 12 % of control

## COc1ccc2c3c([nH]c2c1)[C@H]1C[C@H]2[C@H](C[C@@H](O)[C@H](OC)[C@H]2CO)CN1CC3
dose: 0.5 mg/kg/injection, schedule: Q01DX011 (ip), vehicle: saline
  T/C: 91 % of control
dose: 1.0 mg/kg/injection, schedule: Q01DX011 (ip), vehicle: saline
  T/C: 95 % of control
dose: 2.0 mg/kg/injection, schedule: Q01DX011 (ip), vehicle: saline
  T/C: 92 % of control

## CN(C)S(=O)(=O)c1ncnc2nc[nH]c12
dose: 32.0 mg/kg/injection, schedule: Q01DX011 (ip), vehicle: other
  T/C: 26 % of control
dose: 128.0 mg/kg/injection, schedule: Q01DX011 (ip), vehicle: other
  T/C: 7 % of control
dose: 256.0 mg/kg/injection, schedule: Q01DX011 (ip), vehicle: other
  T/C: 6 % of control

## Nc1ccc2ccccc2c1N=Nc1ccccc1
[8]
  T/C: 68 % of control
[10]
  T/C: 27 % of control
[11]
  T/C: 34 % of control
[12]
  T/C: 25 % of control

## Cn1cnc2c(ncn2C2CC(O)C(CO)O2)c1=N (centres undefined)
dose: 30.0 mg/kg/injection, schedule: Q01DX011 (ip), vehicle: saline
  T/C: 83 % of control
dose: 60.0 mg/kg/injection, schedule: Q01DX011 (ip), vehicle: saline
  T/C: 100 % of control
dose: 120.0 mg/kg/injection, schedule: Q01DX011 (ip), vehicle: saline
  T/C: 80 % of control
dose: 240.0 mg/kg/injection, schedule: Q01DX011 (ip), vehicle: saline
  T/C: 108 % of control

## COc1cc2c3c(c4cc(OC)c(OC)cc4c2cc1OC)CN1CCC[C@H]1C3
dose: 8.8 mg/kg/injection, schedule: Q01DX006 (ip), vehicle: water
  T/C: 89 % of control and 71 % of control
dose: 20.0 mg/kg/injection, schedule: Q01DX006 (ip), vehicle: water
  T/C: 50 % of control

## O=[N+]([O-])c1ccc(O)c([N+](=O)[O-])c1
dose: 3.35 mg/kg/injection, schedule: Q01DX011 (ip), vehicle: carboxymethylcellulose (CMC)
  T/C: 60 % of control
dose: 3.92 mg/kg/injection, schedule: Q01DX011 (ip), vehicle: carboxymethylcellulose (CMC)
  T/C: 57 % of control
dose: 6.7 mg/kg/injection, schedule: Q01DX011 (ip), vehicle: carboxymethylcellulose (CMC)
  T/C: 92 % of control
dose: 7.85 mg/kg/injection, schedule: Q01DX011 (ip), vehicle: carboxymethylcellulose (CMC)
  T/C: 54 % of control
dose: 13.4 mg/kg/injection, schedule: Q01DX011 (ip), vehicle: carboxymethylcellulose (CMC)
  T/C: 64 % of control
dose: 15.7 mg/kg/injection, schedule: Q01DX011 (ip), vehicle: carboxymethylcellulose (CMC)
  T/C: 53 % of control
dose: 26.8 mg/kg/injection, schedule: Q01DX011 (ip), vehicle: carboxymethylcellulose (CMC)
  T/C: 91 % of control
dose: 31.4 mg/kg/injection, schedule: Q01DX011 (ip), vehicle: carboxymethylcellulose (CMC)
  T/C: 78 % of control
